The text below walks through data of PubChem BioAssay (NCI).

Values joined by “and” are separate entries in the source; they are usually repeats but may differ in a detail not shown here. Equal entries are not always repeated.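 All cell lines were grown in 96-well plates and treated with compound for 48 hours. GI50 = concentration required for 50% inhibition of growth. At the TGI there is no net growth.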

Among the test systems are SF-295 CNS; RPMI-8226 leukemia; HL-60(TB) leukemia; SK-MEL-5 melanoma; OVCAR-4 ovarian; A498 renal; IGROV1 ovarian; M14 melanoma; HOP-92 NSCLC; HT29 colon.
Common to all, as to assay: NCI anticancer screen, dose series, 48 h

As to `COC(=O)[C@@H](C)C[C@H](Cc1ccccc1)NC(=O)c1csc([C@@H](C[C@H](C(C)C)N(C)C(=O)[C@@H](NC(=O)[C@H]2CCCCN2C)c2ccc(F)cc2)OC(C)=O)n1`, the TGI in the test on SF-295 CNS is 25 µM and > 100 µM; in the test with RPMI-8226 leukemia, 25 µM and 22 µM; in the test on OVCAR-4 ovarian, 25 µM and > 100 µM; in the test with A498 renal, > 100 µM; in the test on IGROV1 ovarian, 25 µM and > 100 µM. Also, the GI50 is 0.00504 µM and 0.0025 µM and 0.0207 µM in the test with RPMI-8226 leukemia; 0.00219 µM with HL-60(TB) leukemia; 0.00535 µM and 0.0025 µM and 0.0101 µM in the test on SK-MEL-5 melanoma; 0.0216 µM and 0.127 µM in the test with A498 renal.

Consider `CN1CCN(c2ccncc2S(=O)(=O)N2CCN(C)CC2)CC1`, for which the TGI in the test on M14 melanoma, with SF-295 CNS, in the test with RPMI-8226 leukemia, with SK-MEL-5 melanoma, in the test on HOP-92 NSCLC and with OVCAR-4 ovarian was > 100 µM in each case. In addition, the TGI with A498 renal, with HT29 colon and in the test with IGROV1 ovarian was > 100 µM each time.

On to `O=C(Nc1ccc(Cl)cc1)c1cc(NCc2cc(O)ccc2O)ccc1O`, for which the GI50 with M14 melanoma was 10.5 µM; with SF-295 CNS, 15.4 µM; in the test with RPMI-8226 leukemia it was 0.57 µM; with HL-60(TB) leukemia, 1.4 µM; in the test on SK-MEL-5 melanoma, 6.12 µM; in the test with OVCAR-4 ovarian, 2.9 µM. In addition, the values for the GI50 with A498 renal, in the test on HT29 colon and with IGROV1 ovarian were 17.1 µM, 22.2 µM and 11.2 µM, respectively. For the same compound, the TGI is 27.1 µM in the test with M14 melanoma; 36.3 µM with SF-295 CNS; 4.41 µM in the test on RPMI-8226 leukemia; 4.86 µM in the test with HL-60(TB) leukemia; 20 µM in the test with SK-MEL-5 melanoma; > 100 µM in the test on OVCAR-4 ovarian. Moreover, the TGI is 47.1 µM in the test on A498 renal, 58.5 µM with HT29 colon and 38.8 µM with IGROV1 ovarian.

In the case of `Cc1cc2[nH]c(=O)c3c4ncccc4cn3c2cc1C`, the GI50 is 1.85 µM in the test on SF-295 CNS; 2.66 µM in the test with RPMI-8226 leukemia; 2.94 µM in the test on HOP-92 NSCLC; 4.17 µM in the test on OVCAR-4 ovarian; 9.38 µM in the test on A498 renal; 2.98 µM with HT29 colon. In addition, the GI50 in the test with IGROV1 ovarian was 2.75 µM. Besides, the TGI was 3.84 µM in the test on SF-295 CNS; 7.61 µM with RPMI-8226 leukemia; 16.3 µM in the test on HOP-92 NSCLC; > 100 µM in the test with OVCAR-4 ovarian; 84.5 µM in the test on A498 renal; > 100 µM with HT29 colon. In the test with IGROV1 ovarian, the TGI is > 100 µM.

With `CSc1ccc(Cc2cc(C(C)(C)C)cc(C(C)(C)C)c2O)cc1`, the TGI with M14 melanoma was determined as 28.6 µM; with SF-295 CNS, 31.6 µM; with RPMI-8226 leukemia it was 20.8 µM; with HL-60(TB) leukemia, 25.1 µM; in the test on SK-MEL-5 melanoma, 28.9 µM; in the test on OVCAR-4 ovarian, 28.9 µM. In addition, the TGI in the test on A498 renal was found to be 29.3 µM; in the test on HT29 colon it was 27.5 µM; in the test on IGROV1 ovarian, 26.7 µM.

Turning to `O=C(N/C(=C\c1cccc([N+](=O)[O-])c1)c1nc2c3c(ccc2[nH]1)C(=O)c1ccccc1C3=O)c1ccccc1`, the TGI with M14 melanoma, in the test with RPMI-8226 leukemia, in the test on SK-MEL-5 melanoma, in the test with HOP-92 NSCLC, with A498 renal and in the test on HT29 colon was > 100 µM throughout.

Turning to `CON1C(=O)C2(CCCCC2)C(=O)C12C=CC(C)CC2` (configuration not stated), the TGI in the test with M14 melanoma, with SF-295 CNS, with RPMI-8226 leukemia, in the test on HL-60(TB) leukemia, with SK-MEL-5 melanoma and in the test on A498 renal was > 100 µM throughout. For the same compound, the TGI in the test on HT29 colon and in the test on IGROV1 ovarian was > 100 µM in each case.

In the case of `CO[C@H]1/C=C/O[C@@]2(C)Oc3c(C)c(O)c4c(O)c(c(/C=N/N5C(C)CN(Cc6ccc(C#N)cc6)CC5C)c(O)c4c3C2=O)NC(=O)/C(C)=C\C=C\[C@H](C)[C@H](O)[C@@H](C)[C@@H](O)[C@@H](C)[C@H](OC(C)=O)[C@@H]1C` (some centres not stated), the GI50 in the test on M14 melanoma is 7.6 µM; in the test with SF-295 CNS it was 2.88 µM; in the test on HL-60(TB) leukemia it was 7.19 µM; in the test with SK-MEL-5 melanoma, 5.91 µM; with OVCAR-4 ovarian, 7.49 µM; with A498 renal, 7.06 µM. For the same compound, the figures for the GI50 with HT29 colon and in the test with IGROV1 ovarian were 6.87 µM and 7.61 µM, respectively. Also, the TGI was 16.2 µM in the test on M14 melanoma; 12.2 µM with SF-295 CNS; 18.6 µM with HL-60(TB) leukemia; 12.3 µM with SK-MEL-5 melanoma; 26.4 µM with OVCAR-4 ovarian; 14 µM with A498 renal. Also, the TGI in the test on HT29 colon stood at 14.4 µM; in the test on IGROV1 ovarian it was 16.4 µM.

In the case of `C=CCN=C1NC(=O)C(CC(=O)Nc2cccc(Cl)c2)S1` (configuration not stated), the TGI with M14 melanoma, in the test with SF-295 CNS, with RPMI-8226 leukemia, with HL-60(TB) leukemia, in the test on SK-MEL-5 melanoma and with OVCAR-4 ovarian was > 100 µM each time. The TGI with A498 renal, with HT29 colon and with IGROV1 ovarian was > 100 µM throughout.

With `Cc1cc(C)c([I+]c2c(C)cc(C)cc2C)c(C)c1`, the GI50 was 0.44 µM in the test with M14 melanoma; 0.591 µM in the test on SF-295 CNS; 0.201 µM in the test with SK-MEL-5 melanoma; 0.267 µM in the test with HOP-92 NSCLC; 0.277 µM in the test on OVCAR-4 ovarian; 1.56 µM in the test on A498 renal. Further, the GI50 in the test on HT29 colon is 0.279 µM. Besides, the TGI in the test on M14 melanoma was 1.69 µM; in the test with SF-295 CNS it was 2.18 µM; in the test on SK-MEL-5 melanoma, 0.476 µM; with HOP-92 NSCLC it was 1.53 µM; in the test with OVCAR-4 ovarian, 1.35 µM; with A498 renal, 3.64 µM. The same compound returned a TGI with HT29 colon of 1.29 µM.

As to `O=C(O)C(Cc1ccccc1)N=Cc1nc(-c2ccccc2)oc1O` (configuration not stated), the TGI in the test on M14 melanoma, in the test on SF-295 CNS, in the test on RPMI-8226 leukemia, with HL-60(TB) leukemia, in the test with SK-MEL-5 melanoma and in the test on OVCAR-4 ovarian was > 100 µM in each case. Moreover, the TGI with A498 renal, with HT29 colon and in the test with IGROV1 ovarian was > 100 µM throughout.

`OCC#Cc1ccccc1C#Cc1ccc(C#Cc2ccccc2C#CCO)cc1`: the GI50 was 22.7 µM with SF-295 CNS; 26.4 µM in the test with RPMI-8226 leukemia; 90.5 µM with HL-60(TB) leukemia; 23.7 µM in the test with SK-MEL-5 melanoma; 65.8 µM in the test with OVCAR-4 ovarian; 28.9 µM in the test with A498 renal. Also, the GI50 with HT29 colon is 45.4 µM; with IGROV1 ovarian, 30.4 µM. Moreover, the TGI in the test on SF-295 CNS is 62.6 µM; with RPMI-8226 leukemia, 89.3 µM; in the test with HL-60(TB) leukemia it was > 100 µM; in the test with SK-MEL-5 melanoma, 59.3 µM; with OVCAR-4 ovarian it was > 100 µM; in the test with A498 renal, 95.7 µM. Besides, the TGI in the test on HT29 colon and in the test on IGROV1 ovarian was > 100 µM throughout.
